Reference: patent US10597409B2, “Water-soluble triazapyridinophane-based complexing agents and corresponding fluorescent lanthanide complexes” (CISBIO BIOASSAYS, priority 2015, dated 2020)

What was measured:
[1] = Photophysical measurements of the lanthanide complexes (absorption, emission, brightness, lifetime); format: physicochemical
[2] = Solubility in H2O (biological and buffer media); format: physicochemical; conditions: for Solubility in H2O: yes/no

| Absorption λmax [1] [nm] | Brightness ε × Φ (H2O) ([1]; in H2O) | Lifetime τH2O ([1]; in H2O) [ms] | Solubility in water (biological and buffer media) [2] | Solubility in H2O [2] | SMILES |
| --- | --- | --- | --- | --- | --- |
| 267 | 564 | 0.78 | soluble in water | yes | O=C(O)CN1Cc2cccc(n2)CN(CC(=O)O)Cc2cccc(n2)CN(CC(=O)O)Cc2cccc(n2)C1 [Pyridinophane] |
| 320 |  |  | insoluble in water | no | COC(=O)COc1ccc(C#Cc2cc3nc(c2)CN(CC(=O)O)Cc2cc(C#Cc4ccc(OCC(=O)OC)cc4)cc(n2)CN(CC(=O)O)Cc2cc(C#Cc4ccc(OCCCN)cc4)cc(n2)CN(CC(=O)O)C3)cc1 [Complex 62] |
| 328 |  |  | insoluble in water | no | COC(=O)COc1cc(OC)c(-c2cc3nc(c2)CN(CC(=O)O)Cc2cc(-c4c(OC)cc(OCC(=O)OC)cc4OC)cc(n2)CN(CC(=O)O)Cc2cc(-c4ccc(OCCCN)cc4)cc(n2)CN(CC(=O)O)C3)c(OC)c1 [Complex 63] |
